# Experiments:
# [1] = molecular target: T1, D(2) dopamine receptor (Homo sapiens, UniProt P14416); experiment: Partial agonist activity at Dopamine D2 receptor (unknown origin) expressed in HEK293T coexpressing beta-arrestin-2 assessed as increase in cAMP accumulation incubated for 5 mins by beta-arrestin recruitment based BRET assay; assay type: functional, cell-based
# [2] = molecular target: T1, D(2) dopamine receptor; experiment: Displacement of [3H]N-methylspiperone from Dopamine D2 receptor (unknown origin) expressed in HEK293T cell membrane incubated for 2 hrs by radioligand competitive binding based MicroBeta TriLux reader method; assay type: cell membranes
# [3] = molecular target: T1, D(2) dopamine receptor; experiment: Partial agonist activity at Dopamine D2 receptor (unknown origin) expressed in HEK293T co-expressing G-alphai assessed as increase in cAMP accumulation incubated for 5 mins by BRET assay; assay type: functional, cell-based
# [4] = Drug concentration in C57BL/6J mouse brain at 5 mg/kg,ip measured at 0.5 hrs by LC-MS analysis; assay type: ADME, organism-based; settings: read-out: Ct
# [5] = Ratio of drug concentration in brain to plasma in C57BL/6J mouse at 5 mg/kg,ip measured at 0.5 hrs by LC-MS analysis; assay type: ADME, organism-based; settings: read-out: BPR
# [6] = Drug concentration in C57BL/6J mouse brain at 5 mg/kg,ip measured at 2 hrs by LC-MS analysis; assay type: ADME, organism-based; settings: read-out: Ct
# [7] = Drug concentration in C57BL/6J mouse plasma at 5 mg/kg,ip measured at 2 hrs by LC-MS analysis; assay type: ADME, organism-based; settings: in vivo
# [8] = Ratio of drug concentration in brain to plasma in C57BL/6J mouse at 5 mg/kg,ip measured at 2 hrs by LC-MS analysis; assay type: ADME, organism-based; settings: read-out: BPR
# [9] = Drug concentration in C57BL/6J mouse plasma at 5 mg/kg,ip measured at 0.5 hrs by LC-MS analysis; assay type: ADME, organism-based; settings: in vivo
# [10] = molecular target: D(1A) dopamine receptor (Homo sapiens, UniProt P21728); experiment: Displacement of [3H]-SCH23390 from Dopamine D1 receptor (unknown origin) expressed in HEK293T cell membrane incubated for 2 hrs by radioligand competitive binding based MicroBeta TriLux reader method; assay type: cell membranes
# D(1A) dopamine receptor, sequence (P21728 whole entry): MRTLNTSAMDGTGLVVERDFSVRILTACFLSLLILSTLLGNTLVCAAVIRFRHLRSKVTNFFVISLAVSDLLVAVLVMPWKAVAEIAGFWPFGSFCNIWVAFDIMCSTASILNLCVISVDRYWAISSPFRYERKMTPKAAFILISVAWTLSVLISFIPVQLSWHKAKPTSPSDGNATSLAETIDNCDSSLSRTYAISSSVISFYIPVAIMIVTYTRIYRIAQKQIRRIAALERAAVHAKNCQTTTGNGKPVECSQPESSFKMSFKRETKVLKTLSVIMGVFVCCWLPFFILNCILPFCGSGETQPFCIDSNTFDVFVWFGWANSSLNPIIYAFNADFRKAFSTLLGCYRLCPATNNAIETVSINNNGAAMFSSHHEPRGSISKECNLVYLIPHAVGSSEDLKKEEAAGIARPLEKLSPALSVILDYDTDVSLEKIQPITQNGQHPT
# [11] = molecular target: D(1B) dopamine receptor (Homo sapiens, UniProt P21918); experiment: Displacement of […] from Dopamine D5 receptor (unknown origin) expressed in HEK293T cell membrane incubated for 2 hrs by radioligand competitive binding based MicroBeta TriLux reader method; assay type: cell membranes
# D(1B) dopamine receptor, sequence (P21918 whole entry): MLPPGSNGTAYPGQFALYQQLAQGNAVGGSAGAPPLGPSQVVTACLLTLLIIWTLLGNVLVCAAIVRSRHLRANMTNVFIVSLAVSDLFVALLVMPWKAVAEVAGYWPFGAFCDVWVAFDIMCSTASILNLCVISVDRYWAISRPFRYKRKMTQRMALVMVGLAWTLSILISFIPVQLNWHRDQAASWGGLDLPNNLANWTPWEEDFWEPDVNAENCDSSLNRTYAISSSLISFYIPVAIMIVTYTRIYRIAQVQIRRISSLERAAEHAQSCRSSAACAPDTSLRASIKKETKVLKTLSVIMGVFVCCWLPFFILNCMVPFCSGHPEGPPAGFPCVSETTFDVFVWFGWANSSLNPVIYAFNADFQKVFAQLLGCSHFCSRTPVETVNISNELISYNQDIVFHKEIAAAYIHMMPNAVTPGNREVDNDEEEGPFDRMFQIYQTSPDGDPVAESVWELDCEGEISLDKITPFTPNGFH
# [12] = molecular target: T2, 5-hydroxytryptamine receptor 2C (Homo sapiens, UniProt P28335); experiment: Displacement of [3H]-LSD from 5-HT2C receptor (unknown origin) expressed in HEK293T cell membrane incubated for 2 hrs by radioligand competitive binding based MicroBeta TriLux reader method; assay type: cell membranes
# T2 sequence (P28335 whole entry): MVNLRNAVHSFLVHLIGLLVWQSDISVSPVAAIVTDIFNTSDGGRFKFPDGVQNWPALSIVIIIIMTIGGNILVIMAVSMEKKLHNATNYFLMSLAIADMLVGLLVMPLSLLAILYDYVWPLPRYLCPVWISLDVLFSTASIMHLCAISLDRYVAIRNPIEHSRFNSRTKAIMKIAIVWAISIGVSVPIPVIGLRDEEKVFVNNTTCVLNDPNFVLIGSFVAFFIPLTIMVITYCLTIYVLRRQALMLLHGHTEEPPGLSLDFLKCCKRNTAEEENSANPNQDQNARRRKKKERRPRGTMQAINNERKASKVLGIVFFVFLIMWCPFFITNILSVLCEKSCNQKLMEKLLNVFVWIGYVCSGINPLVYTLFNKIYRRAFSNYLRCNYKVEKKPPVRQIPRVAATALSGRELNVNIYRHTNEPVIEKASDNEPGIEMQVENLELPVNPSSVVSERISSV
# [13] = Half life in Sprague-Dawley rat at 3 mg/kg,iv measured upto 24 hrs by LC-MS analysis; assay type: ADME, organism-based; settings: in vivo
# [14] = C0 in Sprague-Dawley rat at 3 mg/kg,iv measured upto 24 hrs by LC-MS analysis; assay type: ADME, organism-based; settings: in vivo
# [15] = AUC (0-t) in Sprague-Dawley rat at 3 mg/kg,iv measured upto 24 hrs by LC-MS analysis; assay type: ADME, organism-based; design: dose 3 mg/kg, time < 24 hrs, route iv; settings: in vivo
# [16] = AUC (0-infinity) in Sprague-Dawley rat at 3 mg/kg,iv measured upto 24 hrs by LC-MS analysis; assay type: ADME, organism-based; design: dose 3 mg/kg, time < 24 hrs, route iv; settings: in vivo
# [17] = Clearance in Sprague-Dawley rat at 3 mg/kg,iv measured upto 24 hrs by LC-MS analysis; assay type: ADME, organism-based; settings: in vivo
# [18] = Half life in Sprague-Dawley rat at 10 mg/kg,po measured upto 24 hrs by LC-MS analysis; assay type: ADME, organism-based; settings: in vivo
# [19] = Cmax in Sprague-Dawley rat at 10 mg/kg,po measured upto 24 hrs by LC-MS analysis; assay type: ADME, organism-based; design: time < 24 hrs, dose 10 mg/kg, route po; settings: in vivo
# [20] = Tmax in Sprague-Dawley rat at 10 mg/kg,po measured upto 24 hrs by LC-MS analysis; assay type: ADME, organism-based; settings: in vivo
# [21] = AUC (0-t) in Sprague-Dawley rat at 10 mg/kg,po measured upto 24 hrs by LC-MS analysis; assay type: ADME, organism-based; design: time < 24 hrs, dose 10 mg/kg, route po; settings: in vivo
# [22] = AUC (0-infinity) in Sprague-Dawley rat at 10 mg/kg,po measured upto 24 hrs by LC-MS analysis; assay type: ADME, organism-based; design: dose 10 mg/kg, time < 24 hrs, route po; settings: in vivo
# [23] = Oral bioavailability in Sprague-Dawley rat at 10 mg/kg measured upto 24 hrs by LC-MS analysis; assay type: ADME, organism-based; settings: in vivo
# T1 sequence (P14416 whole entry): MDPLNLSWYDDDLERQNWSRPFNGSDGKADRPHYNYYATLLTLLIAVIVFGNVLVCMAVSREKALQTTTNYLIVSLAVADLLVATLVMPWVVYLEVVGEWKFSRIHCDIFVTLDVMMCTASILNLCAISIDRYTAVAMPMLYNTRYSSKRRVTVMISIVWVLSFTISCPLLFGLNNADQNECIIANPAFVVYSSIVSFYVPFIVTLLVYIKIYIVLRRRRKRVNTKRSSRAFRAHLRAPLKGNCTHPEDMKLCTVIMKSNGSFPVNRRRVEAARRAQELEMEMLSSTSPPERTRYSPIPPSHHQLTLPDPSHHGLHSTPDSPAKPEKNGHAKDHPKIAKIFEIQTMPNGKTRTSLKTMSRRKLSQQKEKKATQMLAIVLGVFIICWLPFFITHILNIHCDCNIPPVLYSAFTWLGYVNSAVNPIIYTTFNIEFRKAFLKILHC
smiles,measurement,setting,value
COc1cccc2c3c(oc12)CN(C/C=C/COc1ccc2ccc(=O)[nH]c2c1)CC3,EC50,[1]; read-out: EC50,23 nM
COc1cccc2c3c(oc12)CN(CCCCOc1ccc2cccnc2c1)CC3,Ki,[2]; read-out: Ki,1340 nM
same,EC50,[3]; read-out: EC50,2210 nM
same,EC50,[1]; read-out: EC50,518 nM
COc1cccc2c3c(oc12)CN(CCCOc1ccc2ccc(=O)[nH]c2c1)CC3,EC50,[3]; read-out: EC50,0.31 nM
same,EC50,[1]; read-out: EC50,26.6 nM
CC(C)Oc1cccc2c3c(oc12)CN(CCCCOc1ccc2ccc(=O)[nH]c2c1)CC3,EC50,[3]; hek293t,Not Active
CCOc1cccc2c3c(oc12)CN(CCCCOc1ccc2ccc(=O)[nH]c2c1)CC3,EC50,[3]; hek293t,Not Active
CCOc1cccc2cc(CNCCCCOc3ccc4c(c3)NC(=O)CC4)oc12,concentration at 0.5 h,[4],168 ng/mL
same,Kp at 0.5 h,[5],0.142
same,concentration at 2 h,[6],6.05 ng/mL
same,Cp,[7],53.8 ng/mL
same,Kp at 2 h,[8],0.113
CCOc1cccc2cc(C(C)NCC3(O)CCCCC3)oc12 (configuration not stated),Ki,[2]; read-out: Ki,2130 nM
COc1cccc2cc(CNCCCCOc3ccc4ccc(=O)[nH]c4c3)oc12,concentration at 0.5 h,[4],32.1 ng/mL
same,Cp,[9],272 ng/mL
same,Kp at 0.5 h,[5],0.118
same,concentration at 2 h,[6],3.02 ng/mL
same,Cp,[7],6.95 ng/mL
same,Kp at 2 h,[8],0.434
CCOc1cccc2cc(CNCCCCOc3ccc4ccc(=O)[nH]c4c3)oc12,Ki,[2]; read-out: Ki,0.12 nM
same,Ki,[2]; read-out: pKi (converted),0.129 nM
same,EC50,[3]; read-out: EC50,0.13 nM
same,EC50,[3]; read-out: pEC50 (converted),0.123 nM
same,EC50,[1]; read-out: EC50,0.22 nM
same,concentration at 0.5 h,[4],48.3 ng/mL
same,Cp,[9],792 ng/mL
same,Kp at 0.5 h,[5],0.061
same,concentration at 2 h,[6],5.76 ng/mL
same,Cp,[7],53.1 ng/mL
same,Kp at 2 h,[8],0.109
COc1cccc2cc(CNCCCCOc3ccc4c(c3)NC(=O)CC4)oc12,Ki,[2]; read-out: Ki,33.3 nM
same,Ki,[2]; read-out: pKi (converted),33.9 nM
same,EC50,[3]; read-out: EC50,5.16 nM
same,EC50,[1]; read-out: EC50,2.01 nM
same,concentration at 0.5 h,[4],60.7 ng/mL
same,Cp,[9],331 ng/mL
same,Kp at 0.5 h,[5],0.183
same,concentration at 2 h,[6],4.1 ng/mL
same,Cp,[7],10.7 ng/mL
same,Kp at 2 h,[8],0.384
COc1cccc2c3c(oc12)CN(CCCCOc1ccc2ccc(=O)n(C)c2c1)CC3,Ki,[2]; read-out: Ki,2280 nM
CCOc1cccc2cc(CNCCCCCOc3ccc4c(c3)NC(=O)CC4)oc12,Ki,[2]; read-out: Ki,439 nM
same,Ki,[2]; read-out: pKi (converted),447 nM
same,EC50,[3]; read-out: EC50,955 nM
same,EC50,[1]; read-out: EC50,45.1 nM
same,EC50,[1]; read-out: pEC50 (converted),45.7 nM
COc1cccc2c3c(oc12)CN(CCCCOc1ccc2c(c1)NC(=O)CC2)CC3,Ki,[10]; read-out: Ki,35.5 nM
same,Ki,[10]; read-out: pKi (converted),36.3 nM
same,Ki,[11]; read-out: Ki,159 nM
same,Ki,[11]; read-out: pKi (converted),162 nM
same,Ki,[12]; read-out: Ki,611 nM
same,concentration at 0.5 h,[4],410 ng/mL
same,Cp,[9],540 ng/mL
same,Kp at 0.5 h,[5],0.759
same,concentration at 2 h,[6],332 ng/mL
same,Cp,[7],571 ng/mL
same,Kp at 2 h,[8],0.439
CCOc1cccc2cc(CNCC[C@H]3CC[C@H](NC(=O)N4CCCC4)CC3)oc12,Ki,[2]; read-out: Ki,67.9 nM
same,Ki,[2]; read-out: pKi (converted),69.2 nM
same,EC50,[3]; read-out: EC50,10.9 nM
same,EC50,[1]; read-out: EC50,6.2 nM
COc1cccc2c3c(oc12)CN(CCCCOc1ccc2c(c1)NC(=O)C2)CC3,Ki,[2]; read-out: Ki,3190 nM
same,Ki,[2]; read-out: pKi (converted),3240 nM
same,EC50,[3]; read-out: EC50,869 nM
same,EC50,[1]; read-out: EC50,1340 nM
same,EC50,[1]; read-out: pEC50 (converted),1410 nM
CCOc1cccc2cc(CNCCCOc3ccc4c(c3)NC(=O)CC4)oc12,Ki,[2]; read-out: Ki,109 nM
same,EC50,[3]; read-out: EC50,30.4 nM
same,EC50,[1]; read-out: EC50,12.2 nM
O=c1ccc2ccc(OCCCCNCc3cc4ccccc4o3)cc2[nH]1,Ki,[2]; read-out: Ki,239 nM
same,EC50,[3]; read-out: EC50,25.8 nM
same,EC50,[1]; read-out: EC50,2.51 nM
CCOc1cccc2cc(CNCC[C@H]3CC[C@H](NC(=O)N(C)C)CC3)oc12,Ki,[2]; read-out: Ki,99.3 nM
same,EC50,[3]; read-out: EC50,14.7 nM
same,EC50,[1]; read-out: EC50,3.81 nM
CCOc1cccc2cc(CNCC[C@H]3CC[C@H](NC(=O)C4CC4)CC3)oc12,Ki,[2]; read-out: Ki,62.8 nM
same,EC50,[3]; read-out: EC50,6.8 nM
same,EC50,[1]; read-out: EC50,4.08 nM
CCOc1cccc2cc(CNCCCCOc3ccc4oc(C)nc4c3)oc12,Ki,[2]; read-out: Ki,935 nM
same,Ki,[2]; read-out: pKi (converted),955 nM
same,EC50,[3]; read-out: EC50,2670 nM
same,EC50,[1]; read-out: EC50,125 nM
same,EC50,[1]; read-out: pEC50 (converted),135 nM
O=C1CCc2ccc(OCCCCNCc3cc4ccccc4o3)cc2N1,Ki,[2]; read-out: Ki,582 nM
same,EC50,[3]; read-out: EC50,53.7 nM
same,EC50,[1]; read-out: EC50,7.29 nM
COc1cccc2cc(CNCCCOc3ccc4ccc(=O)[nH]c4c3)sc12,Ki,[2]; read-out: Ki,181 nM
same,EC50,[3]; read-out: EC50,270 nM
same,EC50,[1]; read-out: EC50,20.5 nM
COc1cccc2c3c(oc12)CN(CCCCOc1ccc2ccc(=O)[nH]c2c1)CC3,EC50,[3]; read-out: EC50,18.8 nM
same,Ki,[10]; read-out: Ki,189 nM
same,Ki,[11]; read-out: Ki,1040 nM
same,Ki,[12]; read-out: Ki,555 nM
same,Ki,[12]; read-out: pKi (converted),562 nM
same,Cp,[7],397 ng/mL
same,half-life,[13],3.48 h
same,C0 at 24 h,[14],1330 ng/mL
same,AUC(0-t) at 24 h,[15],2990 ng·h/mL
same,AUC(0-inf),[16],3010 ng·h/mL
same,clearance,[17],16.7 mL/min/kg
same,half-life,[18],2.87 h
same,Cmax,[19],1560 ng/mL
same,Tmax,[20],0.5 h
same,AUC(0-t) at 24 h,[21],8920 ng·h/mL
same,AUC(0-inf),[22],8940 ng·h/mL
same,bioavailability,[23],88.8%
